Experimental findings from patent US20160317430A1, “COSMETIC USE OF AN EXTRACT OF GYMNEMA SYLVESTRE” (LABORATOIRES CLARINS, priority 2013, published 2016) are described below.

This assay relates to cytochrome C oxidase, complex IV of the respiratory chain. Briefly: Cytochrome C oxidase activity in human keratinocytes in culture, with or without H2O2 oxidative stress. Format: cell-based. The conditions noted are these: H2O2 alone (positive control), 24 h. Here is the method:
The keratinocyte cultures were established using skin from human foreskins collected at circumcisions and were amplified in KGM2 medium (Keratinocyte Growth Medium, KGN2, clonetics) supplemented with insulin, EGF and pituitary extract. The tests were conducted on keratinocytes at the 3rd passage. The cells were inoculated in multi-well dishes at a rate of 1×10^6 cells. After 24 hours of incubation at 37° C. (5% CO2), the cells in the exponential growth phase were treated with Gymnema sylvestre extract at the concentrations of 0.125% and 0.25% alone or in the presence of H2O2.
After 24 hours of treatment, the cells were sampled and then washed and resuspended in cold PBS. The evaluation of the cytochrome C oxidase activity was then carried out using the analysis kit (Cytochrome C Oxidase Assay Kit—Sigma) according to the protocol specified.

Regarding `OO` [H2O2, hydrogen peroxide], the “% (cytochrome C oxidase activity vs negative control)” value was −34% and the “ATP mean (Table II, cytochrome C oxidase activity test)” value is 0.87 nmol/10^7 cells.
